ChEMBL document CHEMBL5506027, “Discovery of a Novel and Potent Cyclin-Dependent Kinase 8/19 (CDK8/19) Inhibitor for the Treatment of Cancer” (J Med Chem, 2024)
Blank lines part the entries; values can stand above or below the compound they belong to. Calls of active or inactive are those of the source. The rule behind the calls is not given here.

Legend:
[1] = Selectivity ratio of IC50 for CDK7/CyclinH/MAT1 (unknown origin) to IC50 for CDK8/Cyclin C (unknown origin)
[2] = Selectivity ratio of IC50 for CDK1/CyclinA2 (unknown origin) to IC50 for CDK8/Cyclin C (unknown origin)
[3] = Selectivity ratio of IC50 for CDK2/CyclinE1 (unknown origin) to IC50 for CDK8/Cyclin C (unknown origin)
[4] = Tmax in mouse at 5 mg/kg, po measured upto 24 hrs by LC-MS/MS analysis; type: ADME, organism-based; conditions: in vivo
[5] = Cmax in mouse at 5 mg/kg, po measured upto 24 hrs by LC-MS/MS analysis; type: ADME, organism-based; conditions: in vivo
[6] = AUC(0 to 24 hrs) in mouse at 5 mg/kg, po measured upto 24 hrs by LC-MS/MS analysis; type: ADME, organism-based; conditions: in vivo
[7] = Oral bioavailability in mouse at 5 mg/kg measured upto 24 hrs by LC-MS/MS analysis; type: ADME, organism-based; conditions: in vivo
[8] = Cmax in rat at 5 mg/kg, po measured upto 24 hrs by LC-MS/MS analysis; type: ADME, organism-based; conditions: in vivo
[9] = Dose normalized AUC in rat at 5 mg/kg, po measured upto 24 hrs by LC-MS/MS analysis; type: ADME, organism-based; conditions: in vivo
[10] = Oral bioavailability in rat at 5 mg/kg measured upto 24 hrs by LC-MS/MS analysis; type: ADME, organism-based; conditions: in vivo
[11] = Tmax in dog at 3 mg/kg, po measured upto 24 hrs by LC-MS/MS analysis; type: ADME, organism-based, Canis lupus familiaris; conditions: in vivo
[12] = Oral bioavailability in dog at 3 mg/kg measured upto 24 hrs by LC-MS/MS analysis; type: ADME, organism-based, Canis lupus familiaris; conditions: in vivo
Mus musculus [13] = experiment: In vivo inhibition of STAT3 phosphorylation in BALB/c nude mouse tumor xenografted with human MV4-11 cells at 60 mg/kg, po qd for 3 weeks and measured 8 to 24 hrs post last dose; type: functional, organism-based; conditions: time 22.0 day
MV4-11 [14] = experiment: Potency index, ratio of RVU120 IC50 to test compound IC50 for antiproliferative activity against human MV4-11 cells; type: functional
[15] = target: Signal transducer and activator of transcription 1-alpha/beta (Homo sapiens) (UniProt P42224); experiment: Induction of STAT1 (unknown origin) phosphorylation at Ser727 residues by Western blotting analysis; conditions: filed as activator, dose 0.0032-10 µM
[16] = target: Cyclin-dependent kinase 2/cyclin E1 (Homo sapiens) (UniProt P24864+P24941); experiment: Inhibition of CDK2/Cyclin E1 (unknown origin) at 1 uM by luminescence based assay relative to control; type: protein-complex assay
[17] = target: T1, Cyclin-dependent kinase 5/CDK5 activator 1 (Homo sapiens) (UniProt Q00535+Q15078); experiment: Inhibition of CDK5/p25NCK (unknown origin) at 1 uM by luminescence based assay relative to control; type: protein-complex assay
[18] = target: CDK2/Cyclin A2 (Homo sapiens) (UniProt P24941+P20248); experiment: Inhibition of CDK2/CyclinA2 (unknown origin) at 1 uM by luminescence based assay relative to control; type: protein-complex assay
Homo sapiens = organism: Homo sapiens; experiment: Inhibition of CDK1/CyclinA2 (unknown origin) at 1 uM by luminescence based assay relative to control
[19] = target: T1, Cyclin-dependent kinase 5/CDK5 activator 1 (Homo sapiens); experiment: Inhibition of CDK5/p35NCK (unknown origin) at 1 uM by luminescence based assay relative to control; type: protein-complex assay
[20] = target: CDK7/Cyclin H/MNAT1 (Homo sapiens) (UniProt P51946+P50613+P51948); experiment: Inhibition of CDK7/cyclinH/MAT1 (unknown origin) at 1 uM by luminescence based assay relative to control; type: protein-complex assay
[21] = target: CDK1/Cyclin E (Homo sapiens) (UniProt P06493+P24864); experiment: Inhibition of CDK1/cyclinE1 (unknown origin) at 1 uM by luminescence based assay relative to control; type: protein-complex assay
[22] = target: CDK4/Cyclin D3 (Homo sapiens) (UniProt P11802+P30281); experiment: Inhibition of CDK4/cyclinD3 (unknown origin) at 1 uM by luminescence based assay relative to control; type: protein-complex assay
[23] = target: Cyclin-dependent kinase 13/Cyclin-K (Homo sapiens) (UniProt Q14004+O75909); experiment: Inhibition of CDK13/cyclinK (unknown origin) at 1 uM by luminescence based assay relative to control; type: protein-complex assay
[24] = target: Cyclin-dependent kinase 8 (Homo sapiens, UniProt P49336); experiment: Inhibition of CDK8 (unknown origin) assessed as residual activity at 500 nM by ADP-Glo assay
[25] = Tmax in mouse at 30 mg/kg, po measured upto 24 hrs by LC-MS/MS analysis; type: ADME, organism-based; conditions: in vivo
[26] = Cmax in mouse at 30 mg/kg, po measured upto 24 hrs by LC-MS/MS analysis; type: ADME, organism-based; conditions: in vivo
[27] = Dose normalized AUC in mouse at 30 mg/kg, po measured upto 24 hrs by LC-MS/MS analysis; type: ADME, organism-based; conditions: in vivo
[28] = Tmax in rat at 10 mg/kg, po measured upto 24 hrs by LC-MS/MS analysis; type: ADME, organism-based; conditions: in vivo
[29] = AUC(0 to 24 hrs) in rat at 10 mg/kg, po measured upto 24 hrs by LC-MS/MS analysis; type: ADME, organism-based; conditions: in vivo
[30] = Dose normalized AUC in rat at 10 mg/kg, po measured upto 24 hrs by LC-MS/MS analysis; type: ADME, organism-based; conditions: in vivo
[31] = Oral bioavailability in rat at 10 mg/kg measured upto 24 hrs by LC-MS/MS analysis; type: ADME, organism-based; conditions: in vivo
[32] = Cmax in dog at 5 mg/kg, po measured upto 24 hrs by LC-MS/MS analysis; type: ADME, organism-based, Canis lupus familiaris; conditions: in vivo
[33] = Dose normalized AUC in dog at 5 mg/kg, po measured upto 24 hrs by LC-MS/MS analysis; type: ADME, organism-based, Canis lupus familiaris; conditions: in vivo
[34] = Cmax in monkey at 5 mg/kg, po measured upto 24 hrs by LC-MS/MS analysis; type: ADME, organism-based, Macaca mulatta; conditions: rhesus monkey, in vivo
[35] = AUC(0 to 24 hrs) in monkey at 5 mg/kg, po measured upto 24 hrs by LC-MS/MS analysis; type: ADME, organism-based, Macaca mulatta; conditions: rhesus monkey, in vivo
MV4-11 [36] = experiment: Antitumor activity against human MV4-11 cells xenografted in po dosed BALB/c nude mouse assessed as tumor growth inhibition measured twice a week for 3 weeks; type: functional, organism-based; conditions: dose 3-10 mg/kg
[37] = Toxicity in BALB/c nude mouse assessed as changes in body weight at 3 to 10 mg/kg, po qd measured twice a week for 3 weeks; type: organism-based; conditions: in vivo, 504 h, dose 3-10 mg/kg
Mus musculus [38] = experiment: In vivo inhibition of STAT3 phosphorylation in BALB/c nude mouse tumor xenografted with human MV4-11 cells at 10 mg/kg, po qd for 3 weeks and measured 8 to 24 hrs post last dose; type: functional, organism-based; conditions: time 22.0 day
MDA-MB-231 = experiment: Inhibition of cell growth in human MDA-MB-231 cells; type: functional, cell-based
Z-138 [39] = experiment: Antitumor activity against human Z138 cells xenografted in po dosed CB17 SCID mouse assessed as tumor growth inhibition administered once daily for 21 days; type: functional, organism-based; conditions: dose 2.5-5 mg/kg, time 21.0 day
Z-138 [40] = experiment: Synergistic antitumor activity against human Z138 cells xenografted in CB17 SCID mouse assessed as tumor growth inhibition at 2.5 to 5 mg/kg, po administered once daily for 21 days in presence of rituximab; type: functional; conditions: dose 2.5-5 mg/kg, time 21 day

T1 sequence (Q00535 whole entry): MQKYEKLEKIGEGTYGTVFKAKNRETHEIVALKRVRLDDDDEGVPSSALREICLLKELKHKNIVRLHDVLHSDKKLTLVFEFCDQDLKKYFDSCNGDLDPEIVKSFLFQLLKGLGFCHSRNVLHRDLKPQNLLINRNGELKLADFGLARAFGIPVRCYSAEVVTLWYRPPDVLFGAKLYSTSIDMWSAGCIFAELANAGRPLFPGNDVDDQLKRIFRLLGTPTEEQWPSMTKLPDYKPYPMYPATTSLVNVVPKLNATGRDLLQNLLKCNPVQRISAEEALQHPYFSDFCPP
T1 sequence (Q15078 99-307 partner limits assumed): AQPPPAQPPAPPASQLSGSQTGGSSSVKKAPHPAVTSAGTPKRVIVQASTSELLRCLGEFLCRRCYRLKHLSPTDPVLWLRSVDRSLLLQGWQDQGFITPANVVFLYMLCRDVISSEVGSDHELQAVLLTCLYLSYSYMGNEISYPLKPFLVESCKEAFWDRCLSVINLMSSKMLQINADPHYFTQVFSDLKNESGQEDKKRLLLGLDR
Chain of Cyclin-dependent kinase 8 (P49336 whole entry): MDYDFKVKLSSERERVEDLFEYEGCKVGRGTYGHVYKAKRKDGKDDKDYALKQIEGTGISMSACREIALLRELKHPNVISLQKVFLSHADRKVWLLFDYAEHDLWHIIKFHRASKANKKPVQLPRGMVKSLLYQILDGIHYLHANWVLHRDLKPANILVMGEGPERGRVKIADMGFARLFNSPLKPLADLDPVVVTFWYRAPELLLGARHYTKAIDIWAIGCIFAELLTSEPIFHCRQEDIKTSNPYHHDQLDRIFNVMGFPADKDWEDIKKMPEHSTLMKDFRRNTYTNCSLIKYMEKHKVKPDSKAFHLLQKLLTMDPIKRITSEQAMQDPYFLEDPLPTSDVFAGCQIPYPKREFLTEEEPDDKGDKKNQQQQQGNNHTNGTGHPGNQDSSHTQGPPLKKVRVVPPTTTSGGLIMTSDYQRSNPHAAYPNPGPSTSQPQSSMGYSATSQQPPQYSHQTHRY
Chain of CDK1/Cyclin E (Homo sapiens) (P06493 whole entry, looked up): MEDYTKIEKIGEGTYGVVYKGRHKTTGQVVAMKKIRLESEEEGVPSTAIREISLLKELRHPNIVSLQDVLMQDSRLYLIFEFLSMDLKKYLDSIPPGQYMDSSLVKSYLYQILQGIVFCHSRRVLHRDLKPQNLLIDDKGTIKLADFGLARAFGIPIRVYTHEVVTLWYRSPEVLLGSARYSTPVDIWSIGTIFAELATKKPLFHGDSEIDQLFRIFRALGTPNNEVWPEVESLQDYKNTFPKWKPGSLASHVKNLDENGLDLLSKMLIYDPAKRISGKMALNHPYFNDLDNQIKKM
Chain of CDK1/Cyclin E (Homo sapiens) (P24864 whole entry, looked up): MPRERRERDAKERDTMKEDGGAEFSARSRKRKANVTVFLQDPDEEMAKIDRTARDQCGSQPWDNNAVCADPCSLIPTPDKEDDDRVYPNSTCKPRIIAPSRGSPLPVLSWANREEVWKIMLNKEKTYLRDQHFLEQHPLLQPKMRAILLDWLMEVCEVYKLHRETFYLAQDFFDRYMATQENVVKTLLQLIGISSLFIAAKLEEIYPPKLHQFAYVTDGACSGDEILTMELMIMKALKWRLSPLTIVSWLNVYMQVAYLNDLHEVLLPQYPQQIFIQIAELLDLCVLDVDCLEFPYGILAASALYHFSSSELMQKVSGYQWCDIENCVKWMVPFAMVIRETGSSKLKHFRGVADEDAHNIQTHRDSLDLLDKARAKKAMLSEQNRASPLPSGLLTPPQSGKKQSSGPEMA
Chain of Signal transducer and activator of transcription 1-alpha/beta (Homo sapiens) (P42224 whole entry): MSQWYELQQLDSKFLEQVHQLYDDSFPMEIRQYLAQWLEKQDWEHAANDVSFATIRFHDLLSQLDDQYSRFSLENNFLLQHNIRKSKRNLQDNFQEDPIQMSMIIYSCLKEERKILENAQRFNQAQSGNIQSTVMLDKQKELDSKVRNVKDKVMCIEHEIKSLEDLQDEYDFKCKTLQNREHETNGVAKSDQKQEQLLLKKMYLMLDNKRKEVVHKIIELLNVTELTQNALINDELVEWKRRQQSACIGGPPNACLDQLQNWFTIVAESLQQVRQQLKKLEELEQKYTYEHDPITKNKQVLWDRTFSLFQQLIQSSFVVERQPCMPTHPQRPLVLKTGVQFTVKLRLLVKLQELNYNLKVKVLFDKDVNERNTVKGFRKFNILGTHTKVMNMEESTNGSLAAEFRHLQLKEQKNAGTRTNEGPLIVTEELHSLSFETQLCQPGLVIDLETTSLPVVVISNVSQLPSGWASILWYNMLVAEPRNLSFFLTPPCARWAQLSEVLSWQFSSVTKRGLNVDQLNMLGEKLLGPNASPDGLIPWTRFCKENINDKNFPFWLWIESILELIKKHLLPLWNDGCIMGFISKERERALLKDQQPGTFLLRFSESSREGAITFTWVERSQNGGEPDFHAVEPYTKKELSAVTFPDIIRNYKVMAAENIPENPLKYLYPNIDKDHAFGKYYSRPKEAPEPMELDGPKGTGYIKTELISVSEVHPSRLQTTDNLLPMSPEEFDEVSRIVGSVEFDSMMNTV
Chain of Cyclin-dependent kinase 13/Cyclin-K (Homo sapiens) (O75909 whole entry, looked up): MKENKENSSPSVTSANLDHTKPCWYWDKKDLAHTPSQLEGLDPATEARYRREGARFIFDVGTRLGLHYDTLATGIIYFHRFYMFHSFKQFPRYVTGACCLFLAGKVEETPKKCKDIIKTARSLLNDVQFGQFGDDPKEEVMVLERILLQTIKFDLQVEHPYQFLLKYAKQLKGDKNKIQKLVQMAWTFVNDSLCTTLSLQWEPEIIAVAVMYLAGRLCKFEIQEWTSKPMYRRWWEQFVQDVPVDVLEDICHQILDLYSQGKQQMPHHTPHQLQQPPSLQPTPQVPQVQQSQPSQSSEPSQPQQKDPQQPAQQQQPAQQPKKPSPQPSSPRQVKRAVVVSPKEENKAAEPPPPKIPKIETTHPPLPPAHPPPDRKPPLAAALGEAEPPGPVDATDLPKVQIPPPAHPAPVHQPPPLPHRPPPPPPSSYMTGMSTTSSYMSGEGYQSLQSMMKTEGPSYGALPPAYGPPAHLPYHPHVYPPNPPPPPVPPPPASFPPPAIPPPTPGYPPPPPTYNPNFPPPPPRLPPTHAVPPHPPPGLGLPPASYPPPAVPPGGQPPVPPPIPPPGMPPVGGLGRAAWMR
Chain of Cyclin-dependent kinase 13/Cyclin-K (Homo sapiens) (Q14004 whole entry, looked up): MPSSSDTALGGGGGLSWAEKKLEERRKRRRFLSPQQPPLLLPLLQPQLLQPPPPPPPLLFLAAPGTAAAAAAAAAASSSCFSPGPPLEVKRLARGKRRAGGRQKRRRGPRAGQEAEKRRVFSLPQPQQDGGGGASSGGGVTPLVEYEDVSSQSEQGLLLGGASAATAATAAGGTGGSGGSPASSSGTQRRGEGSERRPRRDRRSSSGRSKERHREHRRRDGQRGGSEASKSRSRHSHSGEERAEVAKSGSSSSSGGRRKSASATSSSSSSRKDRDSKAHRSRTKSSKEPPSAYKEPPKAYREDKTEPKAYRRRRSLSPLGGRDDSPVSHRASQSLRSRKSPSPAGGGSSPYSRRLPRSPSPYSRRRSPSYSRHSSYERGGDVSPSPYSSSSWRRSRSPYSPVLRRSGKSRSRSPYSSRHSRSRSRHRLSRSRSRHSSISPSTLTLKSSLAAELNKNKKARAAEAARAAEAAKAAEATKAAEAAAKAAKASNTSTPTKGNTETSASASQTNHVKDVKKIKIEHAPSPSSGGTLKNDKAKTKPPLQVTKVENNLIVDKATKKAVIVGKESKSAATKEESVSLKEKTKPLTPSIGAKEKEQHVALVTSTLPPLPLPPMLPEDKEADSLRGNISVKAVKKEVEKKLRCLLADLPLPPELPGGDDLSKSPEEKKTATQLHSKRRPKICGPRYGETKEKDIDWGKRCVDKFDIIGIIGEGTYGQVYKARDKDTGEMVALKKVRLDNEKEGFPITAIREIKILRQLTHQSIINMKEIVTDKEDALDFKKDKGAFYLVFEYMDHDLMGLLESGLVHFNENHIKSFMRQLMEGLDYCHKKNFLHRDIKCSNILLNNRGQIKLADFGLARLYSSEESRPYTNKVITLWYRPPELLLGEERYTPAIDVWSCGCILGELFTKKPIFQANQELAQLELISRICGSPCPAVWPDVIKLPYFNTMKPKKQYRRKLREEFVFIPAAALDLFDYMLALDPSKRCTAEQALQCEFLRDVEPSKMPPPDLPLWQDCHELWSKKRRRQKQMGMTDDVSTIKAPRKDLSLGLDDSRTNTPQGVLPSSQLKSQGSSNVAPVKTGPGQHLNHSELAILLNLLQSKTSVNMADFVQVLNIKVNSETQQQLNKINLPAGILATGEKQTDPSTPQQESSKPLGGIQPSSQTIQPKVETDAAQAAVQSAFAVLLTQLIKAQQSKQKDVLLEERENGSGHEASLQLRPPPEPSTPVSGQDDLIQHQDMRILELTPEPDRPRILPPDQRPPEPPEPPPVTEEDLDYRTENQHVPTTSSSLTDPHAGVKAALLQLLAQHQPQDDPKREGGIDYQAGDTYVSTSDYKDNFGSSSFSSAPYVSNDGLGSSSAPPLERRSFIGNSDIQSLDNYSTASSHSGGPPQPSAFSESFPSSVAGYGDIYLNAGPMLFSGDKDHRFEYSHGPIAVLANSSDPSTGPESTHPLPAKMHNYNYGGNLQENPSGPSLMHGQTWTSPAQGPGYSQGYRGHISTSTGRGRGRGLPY

Ratio IC50 [1]: 2.9 | Ratio IC50 [2]: 1.2 | Ratio IC50 [3]: 0.1 | Tmax [4]: 1.3 h | Cmax [5]: 143 ng/mL | AUC(0-t) at 24 h [6]: 1350 ng·h/mL | F [7]: 155% | Cmax [8]: 12 ng/mL | AUC/dose [9]: 11.2 ng·h/mL | bioavailability [10]: 20% | Tmax [11]: 4.18 h | bioavailability [12]: 136%
Structure (SMILES): Cc1c(Br)c(Br)c2c3c1nc(N1CCNCC1)n3CCC2 [SEL-120 FREE BASE]
inhibition (Mus musculus [13]): Active

Activity [15]: Dose-Dependent Effect | inhibition [16]: 94.8% | inhibition [17]: 88.3% | inhibition [18]: 84.9% | inhibition (Homo sapiens): 76.2% | inhibition [19]: 75.3% | inhibition [20]: 74.4% | inhibition [21]: 63.4% | inhibition [22]: 58% | inhibition [23]: 57.4% | Activity [24]: 14% | Tmax [25]: 1.5 h | Cmax [26]: 2280 ng/mL | AUC/dose [27]: 796 ng·h/mL | Tmax [28]: 2 h | AUC(0-t) at 24 h [29]: 1900 ng·h/mL | AUC/dose [30]: 190 ng·h/mL | bioavailability [31]: 89% | Cmax [32]: 475 ng/mL | AUC/dose [33]: 1117 ng·h/mL | Cmax [34]: 1100 ng/mL | AUC(0-t) at 24 h [35]: 12500 ng·h/mL | IC50 (MDA-MB-231): 40 nM
Structure (SMILES): FC(F)c1c(Br)c(Br)cc2c1nc(N1CCNCC1)n2C1CCOCC1
Ratio IC50 (MV4-11 [14]): 7 | Activity (MV4-11 [36]): Dose-Dependent Effect | Activity [37]: Non-Toxic | inhibition (Mus musculus [38]): Active | Activity (Z-138 [39]): Dose-Dependent Effect | TGI (Z-138 [40]): 86%
